pIC50: −log10 of the molar value. Values joined by “and” are separate entries in the source; they are usually repeats but may differ in a detail not shown here. Identical values can stand only once.

For this assay, the target named is recombinant human AKR1C3 (Homo sapiens (Human), UniProt P42330). The experiment in a line: AKR1C3 enzyme inhibition assay (Coumberone to Coumberol fluorescence). In kind it is biochemical. Particulars: individual experimental determinations. How it is done: The AKR1C3-inhibitory activity of the substances of the present invention was measured in the AKR1C3 assay described in the paragraphs below.
Sequence of recombinant human AKR1C3 (P42330 whole entry): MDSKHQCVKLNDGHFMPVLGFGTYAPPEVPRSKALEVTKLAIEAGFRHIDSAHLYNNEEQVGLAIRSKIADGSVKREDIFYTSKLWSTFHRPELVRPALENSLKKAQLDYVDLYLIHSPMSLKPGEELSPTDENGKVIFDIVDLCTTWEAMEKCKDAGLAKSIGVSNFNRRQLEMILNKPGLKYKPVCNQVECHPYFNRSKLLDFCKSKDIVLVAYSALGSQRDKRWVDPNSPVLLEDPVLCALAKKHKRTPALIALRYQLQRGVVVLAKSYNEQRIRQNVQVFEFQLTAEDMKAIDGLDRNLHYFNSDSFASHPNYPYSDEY
Essentially, the enzyme activity is measured by quantification of the Coumberol from Coumberone (Halim, M., Yee, D. J., and Sames, D., J. AM. CHEM. SOC. 130, 14123-14128 (2008) and Yee, D. J., Balsanek, V., Bauman, D. R., Penning, T. M., and Sames, D., Proc. Natl. Acad. Sci. USA 103, 13304-13309 (2006)). In this test, the increase of the highly fluorescent Coumberol by NADPH—(nicotinamide adenine dinucleotide phosphate)-dependent reduction of the non-fluorescent Coumberone by AKR1C3 can be determined.
The enzyme used was recombinant human AKR1C3 (Aldo-keto reductase family 1 member C3) (GenBank Accession No. NM_003739). This was expressed in E. coli as GST (glutathione S transferase) fusion protein and purified by glutathione Sepharose affinity chromatography. The GST was removed by digestion with thrombin and subsequent size exclusion chromatography (Dufort, I., Rheault, P., Huang, X F., Soucy, P., and Luu-The, V., Endocrinology 140, 568-574 (1999)).
For the assay, 50 nl of a 100-fold concentrated solution of the test substance in DMSO were pipetted into a black low-volume 384-well microtiter plate (Greiner Bio-One, Frickenhausen, Germany), 2.0 μl of a solution of AKR1C3 in assay buffer [50 mM potassium phosphate buffer pH 7, 1 mM DTT, 0.0022% (w/v) Pluronic F-127, 0.01% BSA (w/v) and protease inhibitor cocktail (Complete, EDTA-free Protease Inhibitor Cocktail from Roche)] were added and the mixture was incubated for 15 min to allow pre-binding of the substances to the enzyme prior to the enzyme reaction. The enzyme reaction was then started by addition of 3 μl of a solution of NADPH (16.7 μM→final concentration in 5 μl of assay volume is 10 μM) and Coumberone (0.5 μM→final concentration in 5 μl of assay volume is 0.3 μM) in assay buffer, and the resulting mixture was incubated at 22° C. for the reaction time of 90 min. The concentration of the AKR1C3 was adapted to the respective activity of the enzyme preparation and adjusted such that the assay was carried out in the linear range. Typical concentrations were in the region of 1 nM. The reaction was stopped by addition of 5 μl of a stop solution consisting of the inhibitor EM-1404 [F. Labrie et al. U.S. Pat. No. 6,541,463, 2003] (2 μM→final concentration in […] is 1 μM). The fluorescence of the Coumberole was then measured at 520 nm (excitation at 380 nm) using a suitable measuring instrument (Pherastar from BMG Labtechnologies). The intensity of the fluorescence was used as a measure of the amount of Coumberole formed and thus of the enzyme activity of AKR1C3. The data were normalized (enzyme reaction without inhibitor=0% inhibition; all other assay components, but no enzyme=100% inhibition).
In the case of `C[C@]12CC[C@@H]3c4ccc(C(=O)NCCCC(=O)O)cc4CC[C@H]3[C@@H]1CC=C2c1cncnc1` [Example 18, 4-({[17-(Pyrimidin-5-yl)estra-1,3,5(10),16-tetraen-3-yl]carbonyl}amino)butanoic acid], the pIC50 was 7.63 and 7.50. Turning to `CC(C)(CNC(=O)c1ccc2c(c1)CC[C@@H]1[C@@H]2CC[C@]2(C)C(c3cncnc3)=CC[C@@H]12)C(=O)O` [Example 20, 2,2-Dimethyl-3-({[17-(pyrimidin-5-yl)estra-1,3,5(10),16-tetraen-3-yl]carbonyl}amino)-propanoic acid], the pIC50 was 7.34 and 7.33. Consider `COc1cncc(C2=CC[C@H]3[C@@H]4CCc5cc(C(=O)NCC(C)(C)C(=O)O)ccc5[C@H]4CC[C@]23C)c1` [Example 14, 3-({[17-(5-Methoxypyridin-3-yl)estra-1,3,5(10),16-tetraen-3-yl]carbonyl}amino)-2,2-dimethylpropanoic acid], for which the pIC50 is 8.01 and 7.75. On the same count and under the same terms, to `COc1cncc(C2=CC[C@H]3[C@@H]4CCc5cc(C(=O)N(C)CCC(=O)O)ccc5[C@H]4CC[C@]23C)c1` [Example 16, N-{[17-(5-Methoxypyridin-3-yl)estra-1,3,5(10),16-tetraen-3-yl]carbonyl}-N-methyl-β-alanine] belongs 8.36 and 8.16. `CN(CCC(=O)O)C(=O)c1ccc2c(c1)CC[C@@H]1[C@@H]2CC[C@]2(C)C(c3cncnc3)=CC[C@@H]12` [Example 19, N-Methyl-N-{[17-(pyrimidin-5-yl)estra-1,3,5(10),16-tetraen-3-yl]carbonyl}-β-alanine]: the IC50 is 26.7 nM (2×) and 17.8 nM. On to `C[C@]12C[C@H](F)[C@@H]3c4ccc(C(=O)NCCCC(=O)O)cc4CC[C@H]3[C@@H]1CC=C2c1cncc(F)c1` [Example 25, 4-({[11β-Fluoro-17-(5-fluoropyridin-3-yl)estra-1,3,5(10),16-tetraen-3-yl]carbonyl}-amino)butanoic acid], for which the pIC50 was 7.54 and 7.77. With `CN(CCC(=O)O)C(=O)c1ccc2c(c1)CC[C@@H]1[C@@H]2CC[C@]2(C)C(c3cncc(C(F)(F)F)c3)=CC[C@@H]12` [Example 22, N-Methyl-N-({17-[5-(trifluoromethyl)pyridin-3-yl]estra-1,3,5(10),16-tetraen-3-yl}carbonyl)-β-alanine], the negative-log IC50 (pIC50) was 8.38.

On to `C[C@]12CC[C@@H]3c4ccc(C(=O)N5CCC[C@@H]5C(=O)O)cc4CC[C@H]3[C@@H]1CC=C2c1cncc(F)c1` [Example 24, N-{[17-(5-Fluoropyridin-3-yl)estra-1,3,5(10),16-tetraen-3-yl]carbonyl}-D-proline], for which the pIC50 is 8.28. Turning to `C[C@]12CC[C@@H]3c4ccc(C(=O)NCC5(C(=O)O)CCCC5)cc4CC[C@H]3[C@@H]1CC=C2c1cncc(F)c1` [Example 4, 1-[({[17-(5-Fluoropyridin-3-yl)estra-1,3,5(10),16-tetraen-3-yl]carbonyl}amino)methyl]-cyclopentane-1-carboxylic acid], the pIC50 was 7.86 and 8.05. For `C[C@]12CC[C@@H]3c4ccc(C(=O)NCCCC(=O)O)cc4CC[C@H]3[C@@H]1CC=C2c1cncc(F)c1` [Example 8, 4-({[17-(5-Fluoropyridin-3-yl)estra-1,3,5(10),16-tetraen-3-yl]carbonyl}amino)butanoic acid], the pIC50 is 8.07 and 8.17. Regarding `CC(C)(NC(=O)c1ccc2c(c1)CC[C@@H]1[C@@H]2CC[C@]2(C)C(c3cncc(F)c3)=CC[C@@H]12)C(=O)O` [Example 7, N-{[17-(5-Fluoropyridin-3-yl)estra-1,3,5(10),16-tetraen-3-yl]carbonyl}-2-methylalanine], the pIC50 was 8.07 and 8.02.

In the case of `C[C@@H](CC(=O)O)NC(=O)c1ccc2c(c1)CC[C@@H]1[C@@H]2CC[C@]2(C)C(c3cncc(F)c3)=CC[C@@H]12` [Example 12, (S)-3-({[17-(5-Fluoropyridin-3-yl)estra-1,3,5(10),16-tetraen-3-yl]carbonyl}amino)-butanoic acid], the pIC50 is 8.92 and 8.77. For `CN(CCC(=O)O)C(=O)c1ccc2c(c1)CC[C@H]1[C@@H]3[C@@H](O)C=C(c4cncc(F)c4)[C@@]3(C)CC[C@H]21` [Example 26, N-{[17-(5-Fluoropyridin-3-yl)-15α-hydroxyestra-1,3,5(10),16-tetraen-3-yl]carbonyl}-N-methyl-β-alanine], the pIC50 is 7.96 and 7.78. As for `C[C@]12CC[C@@H]3c4ccc(C(=O)NCCC(=O)O)cc4CC[C@H]3[C@@H]1CC=C2c1cncnc1` [Example 17, N-{[17-(Pyrimidin-5-yl)estra-1,3,5(10),16-tetraen-3-yl]carbonyl}-β-alanine], the pIC50 is 7.53 and 7.42.

Consider `C[C@]12CC[C@@H]3c4ccc(C(=O)N[C@@H]5CCC[C@@H]5C(=O)O)cc4CC[C@H]3[C@@H]1CC=C2c1cncc(F)c1` (relative stereo) [Example 11, (1R*,2S*)-2-({[17-(5-Fluoropyridin-3-yl)estra-1,3,5(10),16-tetraen-3-yl]carbonyl}amino)-cyclopentane-1-carboxylic acid], for which the pIC50 was 8.66 and 8.74.

Take `C[C@]12CC[C@@H]3c4ccc(C(=O)NCC5(C(=O)O)CCOCC5)cc4CC[C@H]3[C@@H]1CC=C2c1cncc(F)c1` [Example 1, 4-[({[17-(5-Fluoropyridin-3-yl)estra-1,3,5(10),16-tetraen-3-yl]carbonyl}amino)methyl]-3,4,5,6-tetrahydro-2H-pyran-4-carboxylic acid]: the negative-log IC50 (pIC50) was 8.85 and 8.72. `C[C@H](CC(=O)O)NC(=O)c1ccc2c(c1)CC[C@@H]1[C@@H]2CC[C@]2(C)C(c3cncc(F)c3)=CC[C@@H]12` [Example 13, (R)-3-({[17-(5-Fluoropyridin-3-yl)estra-1,3,5(10),16-tetraen-3-yl]carbonyl}amino)-butanoic acid]: the pIC50 is 9.10 and 8.74. Consider `C[C@]12CC[C@@H]3c4ccc(C(=O)NCCC(=O)O)cc4CC[C@H]3[C@@H]1CC=C2c1cncc(C(F)(F)F)c1` [Example 21, N-({17-[5-(Trifluoromethyl)pyridin-3-yl]estra-1,3,5(10),16-tetraen-3-yl}carbonyl)-β-alanine], for which the pIC50 was 8.07.

As to `CN(CCC(=O)O)C(=O)c1ccc2c(c1)CC[C@@H]1[C@@H]2CC[C@]2(C)C(c3cccnc3)=CC[C@@H]12` [Example 29, N-Methyl-N-{[17-(pyridin-3-yl)estra-1,3,5(10),16-tetraen-3-yl]carbonyl}-β-alanine], the negative logarithm of the IC50 (pIC50) is 8.60. In the case of `COc1cncc(C2=CC[C@H]3[C@@H]4CCc5cc(C(=O)NCCC(=O)O)ccc5[C@H]4CC[C@]23C)c1` [Example 15, N-{[17-(5-Methoxypyridin-3-yl)estra-1,3,5(10),16-tetraen-3-yl]carbonyl}-β-alanine], the pIC50 is 8.16 and 8.14.

Take `C[C@]12CC[C@@H]3c4ccc(C(=O)N5CCC(C(=O)O)CC5)cc4CC[C@H]3[C@@H]1CC=C2c1cncc(F)c1` [Example 6, 1-{[17-(5-Fluoropyridin-3-yl)estra-1,3,5(10),16-tetraen-3-yl]carbonyl}piperidine-4-carboxylic acid]: the negative logarithm of the IC50 (pIC50) was 7.68.

The record behind these values is patent US9487554B2, “Estra-1,3,5(10),16-tetraene-3-carboxamide derivatives, processes for their preparation, pharmaceutical preparations comprising them and their use for preparing medicaments” (BAYER INTELLECTUAL PROPERTY GmbH, priority 2011, dated 2016).
